From ChEMBL document CHEMBL1137226, “Structure modifications of 6-aminoquinolones with potent anti-HIV activity” (J Med Chem, 2004)
In brackets after ≈: the same amount, converted by molar mass.

Legend:
MT4 [1] = assay: Selectivity index towards HIV-2 (ROD) in MT-4 cells; format: functional, Homo sapiens
MT4 [2] = assay: Concentration required for protection of MT-4 cells from HIV-2 (ROD) induced cytopathogenicity in MTT assay; format: functional, cell-based; settings: Homo sapiens
MT4 [3] = assay: Maximum protection (%) of MT-4 cells from HIV-2 (ROD) induced cytopathogenicity; value ranges from 51-81%; format: functional, Homo sapiens
MT4 [4] = assay: Concentration of compound that reduces the viability of mock-infected MT-4 cells by 50%; format: functional; settings: Homo sapiens
MT4 [5] = assay: Selectivity index towards HIV-1 (IIIB) in MT-4 cells; format: functional, Homo sapiens
MT4 [6] = assay: Concentration required for protection of MT-4 cells from HIV-1 (IIIB) induced cytopathogenicity in MTT assay; format: functional, cell-based; settings: Homo sapiens
MT4 [7] = assay: Maximum protection (%) of MT-4 cells from HIV-1 (IIIB) induced cytopathogenicity; value ranges from 25-30%; format: functional, Homo sapiens
CCRF-CEM [8] = assay: Selectivity index towards HIV-2 (ROD) in CEM cells; format: functional, Homo sapiens
MT4 [9] = assay: Maximum protection (%) of MT-4 cells from HIV-1 (IIIB) induced cytopathogenicity; value ranges from 60-91%; format: functional, Homo sapiens
CCRF-CEM [10] = assay: Concentration of compound that reduces the viability of mock-infected CEM cells by 50%; format: functional; settings: Homo sapiens
CCRF-CEM [11] = assay: Selectivity index towards HIV-1 (IIIB) in CEM cells; format: functional, Homo sapiens
CCRF-CEM [12] = assay: Concentration of compound required for protection of CEM cells from HIV-2 (ROD) induced cytopathogenicity; format: functional, cell-based; settings: Homo sapiens
MT4 [13] = assay: Maximum protection (%) of MT-4 cells from HIV-2 (ROD) induced cytopathogenicity; value ranges from 51-55%; format: functional, Homo sapiens
CCRF-CEM [14] = assay: Concentration of compound required for protection of CEM cells from HIV-1 (IIIB) induced cytopathogenicity; format: functional, cell-based; settings: Homo sapiens
[15] = Selectivity index towards HIV-1 (IIIB) in peripheral blood mononuclear cells; format: functional, Homo sapiens
[16] = Concentration of compound that reduces the viability of mock-infected peripheral blood mononuclear cells by 50%; format: functional; settings: Homo sapiens
[17] = Concentration of compound required for reduction of p24 production in HIV-1 (IIIB) infected peripheral blood mononuclear cells; format: functional; settings: Homo sapiens
MT4 [18] = assay: Maximum protection (%) of MT-4 cells from HIV-1 (IIIB) induced cytopathogenicity; value ranges from 7-30%; format: functional, Homo sapiens
MT4 [19] = assay: Maximum protection (%) of MT-4 cells from HIV-2 (ROD) induced cytopathogenicity; value ranges from 17-31%; format: functional, Homo sapiens
MT4 [20] = assay: Maximum protection (%) of MT-4 cells from HIV-1 (IIIB) induced cytopathogenicity; value ranges from 65-86%; format: functional, Homo sapiens
MT4 [21] = assay: Maximum protection (%) of MT-4 cells from HIV-2 (ROD) induced cytopathogenicity; value ranges from 15-21%; format: functional, Homo sapiens
MT4 [22] = assay: Maximum protection (%) of MT-4 cells from HIV-2 (ROD) induced cytopathogenicity; format: functional, Homo sapiens
MT4 [23] = assay: Maximum protection (%) of MT-4 cells from HIV-1 (IIIB) induced cytopathogenicity; value ranges from 5-9%; format: functional, Homo sapiens
MT4 [24] = assay: Maximum protection (%) of MT-4 cells from HIV-2 (ROD) induced cytopathogenicity; value ranges from 17-27%; format: functional, Homo sapiens
MT4 [25] = assay: Maximum protection (%) of MT-4 cells from HIV-1 (IIIB) induced cytopathogenicity; value ranges from 16-21%; format: functional, Homo sapiens
MT4 [26] = assay: Maximum protection (%) of MT-4 cells from HIV-1 (IIIB) induced cytopathogenicity; value ranges from 2-18%; format: functional, Homo sapiens
MT4 [27] = assay: Maximum protection (%) of MT-4 cells from HIV-1 (IIIB) induced cytopathogenicity; value ranges from 9-24%; format: functional, Homo sapiens
MT4 [28] = assay: Maximum protection (%) of MT-4 cells from HIV-1 (IIIB) induced cytopathogenicity; value ranges from 11-24%; format: functional, Homo sapiens
MT4 [29] = assay: Maximum protection (%) of MT-4 cells from HIV-2 (ROD) induced cytopathogenicity; value ranges from 26-27%; format: functional, Homo sapiens
MT4 [30] = assay: Maximum protection (%) of MT-4 cells from HIV-2 (ROD) induced cytopathogenicity; value ranges from 58-83%; format: functional, Homo sapiens
MT4 [31] = assay: Maximum protection (%) of MT-4 cells from HIV-1 (IIIB) induced cytopathogenicity; value ranges from 55-118%; format: functional, Homo sapiens

Compound	Selectivity index (MT4 [1])	EC50 (MT4 [2])	CC50 (MT4 [4])	Selectivity index (MT4 [5])	EC50 (MT4 [6])	Selectivity index (CCRF-CEM [8])	CC50 (CCRF-CEM [10])	Selectivity index (CCRF-CEM [11])	EC50 (CCRF-CEM [12])	EC50 (CCRF-CEM [14])	Selectivity index [15]	CC50 [16]	EC50 [17]	Protection (MT4 [22])	also measured
Cn1cc(C(=O)O)c(=O)c2cc(N)c(N3CCN(c4nc5ccccc5s4)CC3)cc21	5.1	0.0011 µg/mL (≈ 0.00253 µM)	0.0054 µg/mL (≈ 0.0124 µM)	<1	> 0.0054 µg/mL	–	–	–	–	–	–	–	–	–	Protection (MT4 [3]): <81%; Protection (MT4 [7]): <30%
Cn1cc(C(=O)O)c(=O)c2cc(N)c(N3CCN(c4cnccn4)CC3)cc21	2.6	1.54 µg/mL (≈ 4.05 µM)	3.98 µg/mL (≈ 10.5 µM)	5.7	0.7 µg/mL (≈ 1.84 µM)	>500	> 100 µg/mL	>1250	0.2 µg/mL (≈ 0.526 µM)	0.08 µg/mL (≈ 0.21 µM)	81	3.65 µg/mL (≈ 9.59 µM)	0.04 µg/mL (≈ 0.105 µM)	–	Protection (MT4 [9]): <91%; Protection (MT4 [13]): <55%
Cn1cc(C(=O)O)c(=O)c2cc(N)c(N3CCN(c4ccccc4F)CC3)cc21	–	> 125 µg/mL	> 125 µg/mL	–	> 125 µg/mL	–	–	–	–	–	–	–	–	–	Protection (MT4 [18]): <30%; Protection (MT4 [19]): <31%
Cn1cc(C(=O)O)c(=O)c2cc(N)c(N3CCN(c4nc5ccccc5o4)CC3)cc21	11.3	0.0087 µg/mL (≈ 0.0207 µM)	0.09 µg/mL (≈ 0.215 µM)	6.5	0.01 µg/mL (≈ 0.0238 µM)	110	2.2 µg/mL (≈ 5.25 µM)	220	0.02 µg/mL (≈ 0.0477 µM)	0.01 µg/mL (≈ 0.0238 µM)	26	1.12 µg/mL (≈ 2.67 µM)	0.04 µg/mL (≈ 0.0954 µM)	–	Protection (MT4 [20]): <86%; Protection (MT4 [21]): <21%
CC(=O)c1ccc(N2CCN(c3cc4c(cc3N)c(=O)c(C(=O)O)cn4C)CC2)cc1	<1	> 0.15 µg/mL	0.15 µg/mL (≈ 0.357 µM)	<1	> 0.15 µg/mL	–	–	–	–	–	–	–	–	13%	Protection (MT4 [23]): <9%
COc1ccccc1N1CCN(c2cc3c(cc2N)c(=O)c(C(=O)O)cn3C)CC1	<1	> 7.45 µg/mL	7.45 µg/mL (≈ 18.2 µM)	<1	> 7.45 µg/mL	–	–	–	–	–	–	–	–	–	Protection (MT4 [24]): <27%; Protection (MT4 [25]): <21%
Nc1cc2c(=O)c(C(=O)O)cn(N3CCN(c4ccccn4)CC3)c2cc1N1CCN(c2nc3ccccc3s2)CC1	<1	> 0.24 µg/mL	0.24 µg/mL (≈ 0.412 µM)	<1	> 0.24 µg/mL	–	–	–	–	–	–	–	–	0%	Protection (MT4 [26]): <18%
COc1ccccc1N1CCN(c2cc3c(cc2N)c(=O)c(C(=O)O)cn3C2CC2)CC1	<1	> 10.3 µg/mL	10.3 µg/mL (≈ 23.8 µM)	<1	> 10.3 µg/mL	–	–	–	–	–	–	–	–	10%	Protection (MT4 [27]): <24%
CCn1cc(C(=O)O)c(=O)c2cc(N)c(N3CCN(c4ccccn4)CC3)cc21	<1	> 2.2 µg/mL	2.2 µg/mL (≈ 5.59 µM)	<1	> 2.2 µg/mL	–	–	–	–	–	–	–	–	–	Protection (MT4 [28]): <24%; Protection (MT4 [29]): <27%
Cn1cc(C(=O)O)c(=O)c2cc(N)c(N3CCN(c4nccs4)CC3)cc21	14.6	0.08 µg/mL (≈ 0.208 µM)	1.17 µg/mL (≈ 3.04 µM)	9	0.13 µg/mL (≈ 0.337 µM)	>=1250	≥ 100 µg/mL	>=1667	0.08 µg/mL (≈ 0.208 µM)	0.06 µg/mL (≈ 0.156 µM)	41	1.3 µg/mL (≈ 3.37 µM)	0.03 µg/mL (≈ 0.0778 µM)	–	Protection (MT4 [30]): <83%; Protection (MT4 [31]): <118%
